Reference: article PMC5218480 (PLoS ONE, 2017)

Test system: MV-4-11 cells
Test: Gene expression microarray analysis (Affymetrix PrimeView) and GSEA
Assay type: cell-based, human
Design: RFU PODN (11730768_x_at) / Fold change /veh PODN (11730768_x_at) / RFU LINC00158 (11744669_a_at) / Fold change /veh LINC00158 (11744669_a_at) / RFU DUSP10 (11751237_a_at) / Fold change /veh DUSP10 (11751237_a_at) / RFU ID3 (11757404_x_at) / Fold change /veh ID3 (11757404_x_at) / RFU PLEKHG5 (11737974_s_at) / Fold change /veh PLEKHG5 (11737974_s_at) / RFU LRRC4B (11730491_at) / Fold change /veh LRRC4B (11730491_at) / RFU GIMAP4 (11747438_a_at) / Fold change /veh GIMAP4 (11747438_a_at) / RFU KRT8 (11758183_x_at) / Fold change /veh KRT8 (11758183_x_at) / RFU CNN1 (11734310_a_at) / Fold change /veh CNN1 (11734310_a_at) / RFU VPS37D (11726825_at) / Fold change /veh VPS37D (11726825_at) / RFU C10orf10 (11716522_x_at) / Fold change /veh C10orf10 (11716522_x_at) / RFU KIR2DL2 /// KIR2DL4 /// KIR2DL5A /// KIR2DL5B /// KIR2DS1 /// KIR2DS2 /// KIR2DS3 /// KIR2DS4 /// KIR3DL3 /// KIR3DL3 /// KIR3DS1 (11738374_at) / Fold change /veh KIR2DL2 /// KIR2DL4 /// KIR2DL5A /// KIR2DL5B /// KIR2DS1 /// KIR2DS2 /// KIR2DS3 /// KIR2DS4 /// KIR3DL3 /// KIR3DL3 /// KIR3DS1 (11738374_at) / RFU C1QL1 (11718748_at) / Fold change /veh C1QL1 (11718748_at) / RFU TMPRSS4 (11747572_a_at) / Fold change /veh TMPRSS4 (11747572_a_at) / RFU HAMP (11756126_x_at) / Fold change /veh HAMP (11756126_x_at) / RFU RNFT2 (11725882_a_at) / Fold change /veh RNFT2 (11725882_a_at) / RFU NR4A2 (11747474_a_at) / Fold change /veh NR4A2 (11747474_a_at) / RFU ABCC12 (11746883_a_at) / Fold change /veh ABCC12 (11746883_a_at) / RFU TMEM136 (11760407_x_at) / Fold change /veh TMEM136 (11760407_x_at) / RFU CLDN22 /// WWC2 (11732394_at) / Fold change /veh CLDN22 /// WWC2 (11732394_at) / RFU HLA-DPB1 (11760878_x_at) / Fold change /veh HLA-DPB1 (11760878_x_at) / RFU SPINT1 (11716480_a_at) / Fold change /veh SPINT1 (11716480_a_at) / RFU GAP43 (11754022_s_at) / Fold change /veh GAP43 (11754022_s_at) / RFU A4GNT (11735810_at) / Fold change /veh A4GNT (11735810_at) / RFU PRB3 (11715151_x_at) / Fold change /veh PRB3 (11715151_x_at) / RFU TUBB4B (11761932_at) / Fold change /veh TUBB4B (11761932_at) / RFU CAPN14 (11732068_a_at) / Fold change /veh CAPN14 (11732068_a_at) / RFU TMCC2 (11721928_a_at) / Fold change /veh TMCC2 (11721928_a_at) / RFU IRGQ (11745062_a_at) / Fold change /veh IRGQ (11745062_a_at) / RFU FAM174B (11720279_a_at) / Fold change /veh FAM174B (11720279_a_at) / RFU TMPRSS4 (11748680_a_at) / Fold change /veh TMPRSS4 (11748680_a_at) / RFU FAM212B (11763350_a_at) / Fold change /veh FAM212B (11763350_a_at) / RFU PLEKHG5 (11743358_a_at) / Fold change /veh PLEKHG5 (11743358_a_at) / RFU ZSCAN30 (11745921_a_at) / Fold change /veh ZSCAN30 (11745921_a_at) / RFU CMKLR1 (11741424_a_at) / Fold change /veh CMKLR1 (11741424_a_at) / RFU LOC101060620 /// MAPK8IP1 (11723275_at) / Fold change /veh LOC101060620 /// MAPK8IP1 (11723275_at) / RFU SPTSSB (11747773_x_at) / Fold change /veh SPTSSB (11747773_x_at) / RFU PRSS12 (11739890_at) / Fold change /veh PRSS12 (11739890_at) / RFU BIN1 (11741810_x_at) / Fold change /veh BIN1 (11741810_x_at) / RFU WNT11 (11732464_a_at) / Fold change /veh WNT11 (11732464_a_at) / RFU C10orf10 (11716521_a_at) / Fold change /veh C10orf10 (11716521_a_at) / RFU C5orf56 (11738089_at) / Fold change /veh C5orf56 (11738089_at) / RFU CYB561 (11721691_x_at) / Fold change /veh CYB561 (11721691_x_at) / RFU ANKRD19P (11752326_a_at) / Fold change /veh ANKRD19P (11752326_a_at) / RFU OR2T12 /// OR2T33 /// OR2T8 (11738714_s_at) / Fold change /veh OR2T12 /// OR2T33 /// OR2T8 (11738714_s_at) / RFU VCAN (11748164_a_at) / Fold change /veh VCAN (11748164_a_at) / RFU JSRP1 (11732532_at) / Fold change /veh JSRP1 (11732532_at) / RFU KRTAP10-11 (11738290_x_at) / Fold change /veh KRTAP10-11 (11738290_x_at) / RFU MYO3A (11730013_a_at) / Fold change /veh MYO3A (11730013_a_at) / RFU EBF3 (11725865_a_at) / Fold change /veh EBF3 (11725865_a_at) / RFU CAMK2N1 (11719241_x_at) / Fold change /veh CAMK2N1 (11719241_x_at) / RFU C5orf56 (11738088_a_at) / Fold change /veh C5orf56 (11738088_a_at) / RFU OLFML3 (11715873_a_at) / Fold change /veh OLFML3 (11715873_a_at) / RFU LOC100653217 /// NTM (11731650_a_at) / Fold change /veh LOC100653217 /// NTM (11731650_a_at) / RFU MAPK11 (11762145_a_at) / Fold change /veh MAPK11 (11762145_a_at) / RFU FIZ1 (11724087_x_at) / Fold change /veh FIZ1 (11724087_x_at) / RFU OASL (11726364_x_at) / Fold change /veh OASL (11726364_x_at) / RFU SOX15 (11748057_x_at) / Fold change /veh SOX15 (11748057_x_at) / RFU CD79A (11719716_a_at) / Fold change /veh CD79A (11719716_a_at) / RFU HIST1H1D (11736915_at) / Fold change /veh HIST1H1D (11736915_at) / RFU CASKIN2 (11723855_a_at) / Fold change /veh CASKIN2 (11723855_a_at) / RFU LOC730098 (11760151_x_at) / Fold change /veh LOC730098 (11760151_x_at) / RFU OR4N2 (11742367_at) / Fold change /veh OR4N2 (11742367_at) / RFU PRRT2 (11749266_a_at) / Fold change /veh PRRT2 (11749266_a_at) / RFU SNX32 (11753110_a_at) / Fold change /veh SNX32 (11753110_a_at) / RFU CDHR5 (11726645_a_at) / Fold change /veh CDHR5 (11726645_a_at) / RFU RCAN1 (11760418_a_at) / Fold change /veh RCAN1 (11760418_a_at) / RFU FAM167A (11723789_a_at) / Fold change /veh FAM167A (11723789_a_at) / RFU FAM26E (11764081_at) / Fold change /veh FAM26E (11764081_at) / RFU ISYNA1 (11749810_s_at) / Fold change /veh ISYNA1 (11749810_s_at) / RFU ACY1 (11761880_at) / Fold change /veh ACY1 (11761880_at) / RFU 11764098_at / Fold change /veh 11764098_at / RFU SAMD14 (11745864_x_at) / Fold change /veh SAMD14 (11745864_x_at) / RFU NPB (11741838_a_at) / Fold change /veh NPB (11741838_a_at) / RFU TMPRSS6 (11731388_a_at) / Fold change /veh TMPRSS6 (11731388_a_at) / RFU KRTAP10-2 (11738614_at) / Fold change /veh KRTAP10-2 (11738614_at) / RFU ARHGAP8 /// PRR5-ARHGAP8 (11727945_x_at) / Fold change /veh ARHGAP8 /// PRR5-ARHGAP8 (11727945_x_at) / RFU KRTAP5-7 /// NADSYN1 (11734609_at) / Fold change /veh KRTAP5-7 /// NADSYN1 (11734609_at) / RFU RASL12 (11751679_a_at) / Fold change /veh RASL12 (11751679_a_at) / RFU CDKN2B (11736163_a_at) / Fold change /veh CDKN2B (11736163_a_at) / RFU PRF1 (11729649_at) / Fold change /veh PRF1 (11729649_at) / RFU, ZNF638 /// ZNF638-IT1 / Fold change vs veh, ZNF638 /// ZNF638-IT1 / RFU, PANK3 / Fold change vs veh, PANK3 / RFU, SH3YL1 / Fold change vs veh, SH3YL1 / RFU, ZEB2 / Fold change vs veh, ZEB2 / RFU, NRIP1 / Fold change vs veh, NRIP1 / RFU, PTTG1IP / Fold change vs veh, PTTG1IP / RFU, CAPN2 / Fold change vs veh, CAPN2 / RFU, MED14 / Fold change vs veh, MED14 / RFU, SNORA58 / Fold change vs veh, SNORA58 / RFU, C1orf63 / Fold change vs veh, C1orf63 / RFU, LRRFIP1 / Fold change vs veh, LRRFIP1 / RFU, NDUFAF7 / Fold change vs veh, NDUFAF7 / RFU, SLC12A2 / Fold change vs veh, SLC12A2 / RFU, IBTK / Fold change vs veh, IBTK / RFU, ESF1 / Fold change vs veh, ESF1 / Fold change vs veh, TMEM50B / RFU, TAOK1 / Fold change vs veh, TAOK1 / RFU, ACBD3 / Fold change vs veh, ACBD3 / RFU, TMA16 / Fold change vs veh, TMA16 / RFU, RWDD3 / Fold change vs veh, RWDD3 / RFU, BCAT1 / Fold change vs veh, BCAT1 / RFU, EDEM3 / Fold change vs veh, EDEM3 / RFU, TMEM33 / Fold change vs veh, TMEM33 / RFU, WDR75 / Fold change vs veh, WDR75 / RFU, AHCTF1 / Fold change vs veh, AHCTF1 / RFU, TFRC / Fold change vs veh, TFRC / RFU, ZDHHC17 / Fold change vs veh, ZDHHC17 / RFU, NOM1 / Fold change vs veh, NOM1 / RFU, ARL8B / Fold change vs veh, ARL8B / RFU, ZBTB11 / Fold change vs veh, ZBTB11 / RFU, TAMM41 / Fold change vs veh, TAMM41 / RFU, KIAA1704 /// LOC100996395 / Fold change vs veh, KIAA1704 /// LOC100996395 / RFU, ING1 / Fold change vs veh, ING1 / RFU, TRMT61B / Fold change vs veh, TRMT61B / RFU, FUBP3 / Fold change vs veh, FUBP3 / RFU, TP53 / Fold change vs veh, TP53 / RFU, TNKS2 / Fold change vs veh, TNKS2 / RFU, ZFP14 / Fold change vs veh, ZFP14 / RFU, ACTR2 / Fold change vs veh, ACTR2 / RFU, PPP3R1 / Fold change vs veh, PPP3R1 / RFU, PIK3R1 / Fold change vs veh, PIK3R1 / RFU, HNRNPA1 / Fold change vs veh, HNRNPA1 / RFU, RNF170 / Fold change vs veh, RNF170 / RFU, ZNF28 / Fold change vs veh, ZNF28 / RFU, RNGTT / Fold change vs veh, RNGTT / RFU, OGT / Fold change vs veh, OGT / RFU, BRD1 / Fold change vs veh, BRD1 / RFU, MARS / Fold change vs veh, MARS / RFU, ZNF655 / Fold change vs veh, ZNF655 / RFU, FAHD1 / Fold change vs veh, FAHD1 / RFU, BDP1 / Fold change vs veh, BDP1 / RFU, LRRCC1 / Fold change vs veh, LRRCC1 / RFU, ARID1A / Fold change vs veh, ARID1A / RFU, ZNF146 / Fold change vs veh, ZNF146 / RFU, ZNF330 / Fold change vs veh, ZNF330 / RFU, GPN3 / Fold change vs veh, GPN3 / RFU, C9orf123 / Fold change vs veh, C9orf123 / RFU, N4BP2L2 / Fold change vs veh, N4BP2L2 / RFU, ARFIP1 / Fold change vs veh, ARFIP1 / RFU, FAM179B / Fold change vs veh, FAM179B / RFU, BCL10 / Fold change vs veh, BCL10 / RFU, UHRF1BP1L / Fold change vs veh, UHRF1BP1L / RFU, BET1 / Fold change vs veh, BET1 / RFU, CNOT2 / Fold change vs veh, CNOT2 / RFU, ZNF268 / Fold change vs veh, ZNF268 / Fold change vs veh, ZNF507 / RFU, DGCR2 / Fold change vs veh, DGCR2 / RFU, WDSUB1 / Fold change vs veh, WDSUB1 / Fold change vs veh, HSP90B1 /// MIR3652 / RFU, ADSS / Fold change vs veh, ADSS / RFU, GK / Fold change vs veh, GK / RFU, ZNF148 / Fold change vs veh, ZNF148 / RFU, TAF9 / Fold change vs veh, TAF9 / RFU, SLC1A5 / Fold change vs veh, SLC1A5 / RFU, SLMO2 / Fold change vs veh, SLMO2 / RFU, ABCC4 / Fold change vs veh, ABCC4 / RFU, LOC101060439 /// RAP1B / Fold change vs veh, LOC101060439 /// RAP1B / RFU, RFX7 / Fold change vs veh, RFX7 / RFU, GTPBP10 / Fold change vs veh, GTPBP10 / RFU, CNEP1R1 / Fold change vs veh, CNEP1R1 / RFU, BIVM-ERCC5 /// ERCC5 / Fold change vs veh, BIVM-ERCC5 /// ERCC5 / RFU, ILF3 / Fold change vs veh, ILF3 / RFU 11762660_at / Fold change /veh 11762660_at / RFU VCAN (11757783_s_at) / Fold change /veh VCAN (11757783_s_at) / RFU DDX43 (11728927_at) / Fold change /veh DDX43 (11728927_at) / RFU KRT8 (11758188_x_at) / Fold change /veh KRT8 (11758188_x_at) / RFU NKD1 (11759106_at) / Fold change /veh NKD1 (11759106_at) / RFU SRD5A1 (11742802_a_at) / Fold change /veh SRD5A1 (11742802_a_at) / RFU TPSAB1 /// TPSB2 (11721975_s_at) / Fold change /veh TPSAB1 /// TPSB2 (11721975_s_at) / RFU GSTM3 (11746129_a_at) / Fold change /veh GSTM3 (11746129_a_at) / RFU IL23R (11737362_x_at) / Fold change /veh IL23R (11737362_x_at) / RFU TMEM51 (11727254_a_at) / Fold change /veh TMEM51 (11727254_a_at) / RFU PIWIL2 (11732686_x_at) / Fold change /veh PIWIL2 (11732686_x_at) / RFU ORM1 (11744905_x_at) / Fold change /veh ORM1 (11744905_x_at) / RFU CCDC152 (11743942_at) / Fold change /veh CCDC152 (11743942_at) / RFU ECM1 (11717891_a_at) / Fold change /veh ECM1 (11717891_a_at) / RFU IL23R (11748794_a_at) / Fold change /veh IL23R (11748794_a_at) / RFU TNFAIP8L3 (11732012_x_at) / Fold change /veh TNFAIP8L3 (11732012_x_at) / RFU MBOAT4 (11741988_at) / Fold change /veh MBOAT4 (11741988_at) / RFU 11764193_at / Fold change /veh 11764193_at / RFU TMEM53 (11763286_at) / Fold change /veh TMEM53 (11763286_at) / RFU MAGEB2 (11727129_at) / Fold change /veh MAGEB2 (11727129_at) / RFU TMEM200A (11744735_a_at) / Fold change /veh TMEM200A (11744735_a_at) / RFU CCDC152 (11751479_a_at) / Fold change /veh CCDC152 (11751479_a_at) / RFU FAM211A (11726209_a_at) / Fold change /veh FAM211A (11726209_a_at) / RFU RGS16 (11746705_a_at) / Fold change /veh RGS16 (11746705_a_at) / RFU VCAN (11755009_s_at) / Fold change /veh VCAN (11755009_s_at) / RFU RHOB (11743442_s_at) / Fold change /veh RHOB (11743442_s_at) / RFU RGS16 (11720943_a_at) / Fold change /veh RGS16 (11720943_a_at) / RFU RGS16 (11720944_at) / Fold change /veh RGS16 (11720944_at) / RFU, VPS4B / Fold change vs veh, VPS4B / RFU, CREB1 / Fold change vs veh, CREB1 / RFU, DNAJC13 / Fold change vs veh, DNAJC13 / RFU, GNAQ / Fold change vs veh, GNAQ / RFU, CDK5R1 / Fold change vs veh, CDK5R1 / RFU, ZRANB3 / Fold change vs veh, ZRANB3 / RFU, CUL4A / Fold change vs veh, CUL4A / RFU, CCNY / Fold change vs veh, CCNY / RFU, UFL1 / Fold change vs veh, UFL1 / RFU, COG3 / Fold change vs veh, COG3 / RFU, DIAPH2 / Fold change vs veh, DIAPH2 / RFU, SKA2 / Fold change vs veh, SKA2 / RFU, AFF3 / Fold change vs veh, AFF3 / RFU, LMF1 / Fold change vs veh, LMF1 / RFU, IPO11 / Fold change vs veh, IPO11 / RFU, DFFB / Fold change vs veh, DFFB / RFU, FOXP1 / Fold change vs veh, FOXP1 / RFU, CARD8 / Fold change vs veh, CARD8 / RFU, STRN3 / Fold change vs veh, STRN3 / RFU, ADK / Fold change vs veh, ADK / RFU, RASSF2 / Fold change vs veh, RASSF2 / RFU, WIPF1 / Fold change vs veh, WIPF1 / RFU, LARP1B / Fold change vs veh, LARP1B / RFU, RASA1 / Fold change vs veh, RASA1 / RFU, RB1 / Fold change vs veh, RB1 / RFU, PPFIA1 / Fold change vs veh, PPFIA1 / RFU, MAT2A / Fold change vs veh, MAT2A / RFU, CCT5 / Fold change vs veh, CCT5 / RFU, WDR92 / Fold change vs veh, WDR92 / RFU, CUX1 / Fold change vs veh, CUX1 / RFU, TTC7A / Fold change vs veh, TTC7A / RFU, TMEM135 / Fold change vs veh, TMEM135 / RFU, DEPTOR / Fold change vs veh, DEPTOR / RFU, CPM / Fold change vs veh, CPM / RFU, DNAJB6 / Fold change vs veh, DNAJB6 / RFU, CACNA2D3 / Fold change vs veh, CACNA2D3 / RFU, DTX4 / Fold change vs veh, DTX4 / RFU, TFCP2 / Fold change vs veh, TFCP2 / RFU, GMCL1 /// GMCL1P1 / Fold change vs veh, GMCL1 /// GMCL1P1 / RFU, AEBP2 / Fold change vs veh, AEBP2 / RFU, SNHG1 /// SNORD22 /// SNORD25 /// SNORD26 /// SNORD27 /// SNORD28 /// SNORD29 /// SNORD31 / Fold change vs veh, SNHG1 /// SNORD22 /// SNORD25 /// SNORD26 /// SNORD27 /// SNORD28 /// SNORD29 /// SNORD31 / Fold change (Aza/veh), C12orf56 (ProbeSet 11735607_a_at) / Fold change (ACY-1035/veh), C12orf56 (ProbeSet 11735607_a_at) / Fold change (Aza/veh), FGFR1OP (ProbeSet 11751329_s_at) / Fold change (ACY-1035/veh), FGFR1OP (ProbeSet 11751329_s_at) / Fold change (Aza/veh), VPS36 (ProbeSet 11739960_a_at) / Fold change (ACY-1035/veh), VPS36 (ProbeSet 11739960_a_at) / RFU SYPL1 (11715823_x_at) / Fold change /veh SYPL1 (11715823_x_at) / RFU IGFBP7 (11715501_s_at) / Fold change /veh IGFBP7 (11715501_s_at) / RFU REEP3 (11722064_at) / Fold change /veh REEP3 (11722064_at) / RFU IGLL1 (11728026_x_at) / Fold change /veh IGLL1 (11728026_x_at): dose or concentration left out as unconfirmed
Conditions: ProbeSet 11722302_a_at; LIST B

Q: Which “Fold change vs veh, LRRFIP1” value does the source give for `Nc1ncn([C@@H]2O[C@H](CO)[C@@H](O)[C@H]2O)c(=O)n1` [azacitidine] here?
A: 0.89
